# Test results from ChEMBL document CHEMBL1201862, “PubChem BioAssay data set” (2004).
# The source made the active and inactive calls.
# Columns and labels:
# Cytochrome P450 3A4 [1] = molecular target: T1, Cytochrome P450 3A4 (Homo sapiens, UniProt P08684);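 also: CYP3A4 tested as one member of a cytochrome P450 panel screen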
# [2] = molecular target: T2, Mannose-6-phosphate isomerase (Homo sapiens, UniProt P34949); assay: MPI inhibition at elevated mannose 6-phosphate – biochemical, fluorescence intensity, high mannose 6-phosphate, primary screen (AID 1220)
# T2 sequence (P34949 whole entry): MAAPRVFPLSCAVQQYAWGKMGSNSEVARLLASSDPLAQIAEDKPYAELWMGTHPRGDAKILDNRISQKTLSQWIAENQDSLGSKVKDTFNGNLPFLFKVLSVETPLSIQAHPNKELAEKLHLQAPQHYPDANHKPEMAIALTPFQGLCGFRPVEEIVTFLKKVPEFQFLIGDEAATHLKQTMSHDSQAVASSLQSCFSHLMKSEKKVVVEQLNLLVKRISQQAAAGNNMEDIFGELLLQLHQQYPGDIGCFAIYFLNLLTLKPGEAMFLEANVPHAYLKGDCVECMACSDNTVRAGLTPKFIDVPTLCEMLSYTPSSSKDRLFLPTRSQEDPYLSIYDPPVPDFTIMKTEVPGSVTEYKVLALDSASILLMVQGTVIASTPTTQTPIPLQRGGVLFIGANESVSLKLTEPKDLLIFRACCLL
# HeLa = assay: ATP-based viability loss in HeLa cells – cell-based, CellTiter-Glo luminescence, cherry-pick samples, cytotoxicity control for MITF activator project, dose response (AID 540259); format: functional; details: Homo sapiens
# Escherichia coli = assay: microbe, parasite or virus in culture
# Prothrombin = Prothrombin (Bos taurus, UniProt P00735); assay: thrombin protease inhibitors – biochemical, fluorescence polarization, uHTS hits, dose response (AID 602369); format: functional
# [3] = molecular target: 26S proteasome non-ATPase regulatory subunit 14 (Homo sapiens, UniProt O00487); assay: inhibition of proteasome subunit RPN11 – biochemical, fluorescence polarization, uHTS hits, confirmation (AID 602368); format: functional
# Chain of 26S proteasome non-ATPase regulatory subunit 14 (O00487 whole entry): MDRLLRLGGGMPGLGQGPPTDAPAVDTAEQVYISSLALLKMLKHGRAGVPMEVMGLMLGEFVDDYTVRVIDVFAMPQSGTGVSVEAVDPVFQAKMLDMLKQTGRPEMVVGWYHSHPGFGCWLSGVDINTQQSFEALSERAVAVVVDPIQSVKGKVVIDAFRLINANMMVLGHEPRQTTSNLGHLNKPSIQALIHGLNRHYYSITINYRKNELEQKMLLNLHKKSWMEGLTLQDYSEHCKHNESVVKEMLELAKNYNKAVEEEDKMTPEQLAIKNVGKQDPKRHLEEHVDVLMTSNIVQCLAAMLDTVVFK
# [4] = molecular target: 72 kDa type IV collagenase (Homo sapiens, UniProt P08253); assay: Dose Response validation of uHTS RPN11 inhibitor hits using a MMP-2 Fluorescence assay.; format: functional
# Chain of 72 kDa type IV collagenase (P08253 whole entry): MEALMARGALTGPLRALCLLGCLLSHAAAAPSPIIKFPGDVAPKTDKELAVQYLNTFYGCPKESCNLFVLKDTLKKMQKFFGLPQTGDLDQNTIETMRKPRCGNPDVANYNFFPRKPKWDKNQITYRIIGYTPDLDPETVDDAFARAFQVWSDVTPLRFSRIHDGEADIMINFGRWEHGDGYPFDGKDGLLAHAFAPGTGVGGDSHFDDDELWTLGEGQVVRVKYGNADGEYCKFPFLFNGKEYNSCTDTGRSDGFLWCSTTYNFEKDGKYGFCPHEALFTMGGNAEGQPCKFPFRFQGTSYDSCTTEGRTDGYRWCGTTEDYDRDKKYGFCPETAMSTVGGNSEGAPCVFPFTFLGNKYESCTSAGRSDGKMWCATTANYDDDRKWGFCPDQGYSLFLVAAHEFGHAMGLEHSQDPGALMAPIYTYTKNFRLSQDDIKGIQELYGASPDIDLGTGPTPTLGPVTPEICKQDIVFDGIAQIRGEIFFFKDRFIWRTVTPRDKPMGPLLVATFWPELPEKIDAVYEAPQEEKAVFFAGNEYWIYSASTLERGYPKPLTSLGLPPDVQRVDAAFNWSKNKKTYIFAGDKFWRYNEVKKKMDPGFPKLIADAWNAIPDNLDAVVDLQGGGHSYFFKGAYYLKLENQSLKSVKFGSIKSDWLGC
# Cytochrome P450 3A4 [5] = molecular target: T1, Cytochrome P450 3A4; remark: listed apart in the source
# Cytochrome P450 2D6 = Cytochrome P450 2D6 (Homo sapiens, UniProt P10635);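 also: CYP2D6 member of a cytochrome P450 panel assay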
# Chain of Cytochrome P450 2D6 (P10635 whole entry): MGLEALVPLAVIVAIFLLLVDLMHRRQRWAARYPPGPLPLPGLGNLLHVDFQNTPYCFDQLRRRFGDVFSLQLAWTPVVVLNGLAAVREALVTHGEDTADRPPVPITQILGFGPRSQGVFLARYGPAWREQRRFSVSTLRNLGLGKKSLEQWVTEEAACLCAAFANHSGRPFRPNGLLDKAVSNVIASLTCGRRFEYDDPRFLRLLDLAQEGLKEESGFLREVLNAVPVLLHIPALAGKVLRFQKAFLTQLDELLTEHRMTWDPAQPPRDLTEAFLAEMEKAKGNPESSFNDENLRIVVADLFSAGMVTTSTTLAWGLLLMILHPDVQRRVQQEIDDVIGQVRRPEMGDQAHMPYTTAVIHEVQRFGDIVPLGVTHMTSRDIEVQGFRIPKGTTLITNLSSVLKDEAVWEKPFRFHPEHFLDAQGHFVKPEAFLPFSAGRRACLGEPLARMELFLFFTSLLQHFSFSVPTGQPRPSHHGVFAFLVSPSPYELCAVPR
# Cytochrome P450 2C19 = Cytochrome P450 2C19 (Homo sapiens, UniProt P33261); assay: Cytochrome panel assay with activity outcomes. Panel member name: p450-cyp2c19 Compounds with AC50 equal or less than 10 uM are considered active; format: functional
# Chain of Cytochrome P450 2C19 (P33261 whole entry): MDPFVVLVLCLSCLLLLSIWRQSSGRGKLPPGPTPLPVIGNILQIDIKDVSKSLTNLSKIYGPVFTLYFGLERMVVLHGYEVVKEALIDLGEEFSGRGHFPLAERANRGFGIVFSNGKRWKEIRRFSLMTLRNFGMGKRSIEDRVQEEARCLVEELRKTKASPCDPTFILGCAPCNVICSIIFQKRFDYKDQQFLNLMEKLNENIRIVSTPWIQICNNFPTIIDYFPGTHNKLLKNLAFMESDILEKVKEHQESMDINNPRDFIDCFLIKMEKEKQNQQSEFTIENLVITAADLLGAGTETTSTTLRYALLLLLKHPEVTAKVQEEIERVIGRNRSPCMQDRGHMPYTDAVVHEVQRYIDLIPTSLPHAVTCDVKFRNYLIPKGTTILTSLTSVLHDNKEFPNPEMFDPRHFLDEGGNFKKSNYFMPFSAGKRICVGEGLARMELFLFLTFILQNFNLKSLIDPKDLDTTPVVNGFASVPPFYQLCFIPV
# [6] = molecular target: Induced myeloid leukemia cell differentiation protein Mcl-1 (Homo sapiens, UniProt Q07820); format: functional
# Chain of Induced myeloid leukemia cell differentiation protein Mcl-1 (Q07820 whole entry, the tested form may be a part): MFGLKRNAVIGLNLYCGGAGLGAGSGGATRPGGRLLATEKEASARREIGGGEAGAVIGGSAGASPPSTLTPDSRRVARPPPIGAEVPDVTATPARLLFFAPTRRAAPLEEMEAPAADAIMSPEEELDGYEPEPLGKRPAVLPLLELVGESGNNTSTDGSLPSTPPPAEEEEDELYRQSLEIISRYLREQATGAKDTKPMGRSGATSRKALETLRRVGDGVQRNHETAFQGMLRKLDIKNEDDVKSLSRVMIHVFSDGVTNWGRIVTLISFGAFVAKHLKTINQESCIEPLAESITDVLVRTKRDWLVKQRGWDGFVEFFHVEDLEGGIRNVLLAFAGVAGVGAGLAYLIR
# [7] = molecular target: T3, Oxysterols receptor LXR-beta (Homo sapiens, UniProt P55055); format: functional, cell-based;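 also: Cell-based luminescence dose-response assay of agonist activity at LXR, run as a confirmatory counterscreen to a daf-12 agonist screen; HEK293 cells with Gal4-LXR fusion and GAL4-driven luciferase reporter; agonist potency from rising luciferase signal of a Gal4-LXR reporter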
# T3 sequence (P55055 whole entry): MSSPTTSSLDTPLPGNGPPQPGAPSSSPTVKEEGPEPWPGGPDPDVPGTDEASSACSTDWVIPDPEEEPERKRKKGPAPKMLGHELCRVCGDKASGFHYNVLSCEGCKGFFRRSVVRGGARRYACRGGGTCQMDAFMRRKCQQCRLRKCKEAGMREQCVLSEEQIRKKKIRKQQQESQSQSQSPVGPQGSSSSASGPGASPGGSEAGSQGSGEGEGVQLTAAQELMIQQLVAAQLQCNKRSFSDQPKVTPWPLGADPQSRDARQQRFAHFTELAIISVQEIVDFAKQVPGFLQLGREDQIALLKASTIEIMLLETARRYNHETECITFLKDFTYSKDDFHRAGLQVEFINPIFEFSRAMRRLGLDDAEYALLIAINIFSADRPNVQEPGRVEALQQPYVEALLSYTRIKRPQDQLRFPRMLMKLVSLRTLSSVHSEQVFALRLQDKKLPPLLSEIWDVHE
# cells [8] = assay: cells
# HEK293 = assay: EBV LMP1 TES2 canonical NF-kB signalling blockers – cell-based, HEK293, luciferase, cherry-pick, dose response (AID 588343); format: functional; details: Homo sapiens
# [9] = alpha-synuclein stem-loop luciferase translation blockers – H4 neuroglioma cells, luminescence, confirmation (AID 1988); format: functional, cell-based
# [10] = Luminescence Cell-Based Dose Response HTS to Identify Inhibitors of 5'UTR Stem-Loop Driven Prion Protein mRNA Translation in H4 Neuroglioblastoma Cells. [Related pubchem assays: 1827 (Project Summary), 1813 (Primary HTS)]; format: functional
# [11] = blockade of melanocortin 4 receptor signaling – cell-based, plate reader, cherry pick, counter-screen for LGR2 antagonist project, dose response (AID 743444); format: functional;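 also: transfected HEK 293 cells stimulated with alpha-MSH peptide; potency of inhibitors of the alpha-MSH evoked signal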
# [12] = luciferase reporter signal suppression in cells – H4 neuroglioma cells, luminescence, dose response (AID 1990); format: functional, cell-based
# [13] = blockers of bursicon-stimulated LGR2 cAMP reporter – cell-based, HEK293, CRE-luciferase reporter, cherry pick, set 2, dose response (AID 743343); format: functional;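 also: transfected cells were stimulated with diluted bursicon conditioned medium after compound addition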
# H4 = assay: Luminescence Cell-Based Dose Response HTS to Identify Activators of 5'UTR Stem-Loop Driven Prion Protein mRNA Translation in H4 Neuroglioblastoma Cells. [Related pubchem assays: 1829 (Project Summary), 1814 (Primary HTS)]; format: functional; details: Homo sapiens
# [14] = Luminescence Cell-Based Dose Confirmation HTS to Identify Activators of 5'UTR Stem-Loop Driven Alpha-Synuclein mRNA Translation in H4 Neuroglioblastoma Cells. [Related pubchem assays: 1829 (Project Summary), 1814 (Primary HTS)]; format: functional
# [15] = molecular target: Mitogen-activated protein kinase 10 (Homo sapiens, UniProt P53779); assay: Dose response biochemical screening assay for inhibitors of c-Jun N-Terminal Kinase 3 (JNK3). [Related pubchem assays: 746 ]
# Chain of Mitogen-activated protein kinase 10 (P53779 whole entry): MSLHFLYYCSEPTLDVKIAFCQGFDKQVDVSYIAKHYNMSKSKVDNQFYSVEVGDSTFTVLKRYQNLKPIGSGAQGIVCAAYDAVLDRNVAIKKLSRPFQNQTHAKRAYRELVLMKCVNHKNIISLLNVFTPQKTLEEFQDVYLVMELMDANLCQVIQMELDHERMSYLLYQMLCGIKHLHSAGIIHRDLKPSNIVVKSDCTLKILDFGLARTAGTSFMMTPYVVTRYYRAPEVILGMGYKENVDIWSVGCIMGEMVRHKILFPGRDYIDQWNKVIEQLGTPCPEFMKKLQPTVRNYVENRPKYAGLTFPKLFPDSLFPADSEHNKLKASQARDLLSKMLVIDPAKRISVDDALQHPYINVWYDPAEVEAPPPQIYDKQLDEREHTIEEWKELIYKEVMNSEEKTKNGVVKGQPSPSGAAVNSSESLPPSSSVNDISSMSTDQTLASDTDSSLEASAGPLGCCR
# [16] = Luminescence Cell-Based Dose Response HTS to Identify Activators of Luciferase Translation or Activity in H4 […] Cells. [Related pubchem assays: 1829 (Project Summary), 1814 (Primary HTS)]; format: functional
# [17] = molecular target: Glucose-6-phosphate 1-dehydrogenase (Homo sapiens, UniProt P11413); assay: inhibition of Homo sapiens G6PD, dose series – biochemical, fluorescence, selectivity assay for P. falciparum G6PD inhibitor project, dose response (AID 504792); format: functional
# Chain of Glucose-6-phosphate 1-dehydrogenase (P11413 whole entry): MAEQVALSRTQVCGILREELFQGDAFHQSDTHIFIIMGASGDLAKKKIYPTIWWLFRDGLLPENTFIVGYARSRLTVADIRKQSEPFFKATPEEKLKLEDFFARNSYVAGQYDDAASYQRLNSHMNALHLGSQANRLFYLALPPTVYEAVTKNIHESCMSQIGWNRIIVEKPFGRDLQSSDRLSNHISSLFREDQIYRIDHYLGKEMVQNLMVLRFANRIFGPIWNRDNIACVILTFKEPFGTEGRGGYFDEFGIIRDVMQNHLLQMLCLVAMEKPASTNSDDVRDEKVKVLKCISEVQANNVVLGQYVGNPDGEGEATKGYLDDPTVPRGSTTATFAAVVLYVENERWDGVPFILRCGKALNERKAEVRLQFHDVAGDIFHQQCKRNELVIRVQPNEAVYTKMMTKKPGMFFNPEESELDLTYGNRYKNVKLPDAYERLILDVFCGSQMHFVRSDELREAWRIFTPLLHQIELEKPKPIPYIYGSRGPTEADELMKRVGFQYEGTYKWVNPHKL
# [18] = Luminescence Cell-Based Dose Confirmation HTS to Identify Inhibitors of Platelet Dense Granule Release. [Related pubchem assays: 1663 (Primary HTS), 1678 (Summary of Project)]; format: functional
# [19] = molecular target: Luciferin 4-monooxygenase (Photinus pyralis, UniProt P08659); assay: inhibition of purified Photinus pyralis luciferase – biochemical, luminescence, dose response (AID 1891)
# Chain of Luciferin 4-monooxygenase (P08659 whole entry): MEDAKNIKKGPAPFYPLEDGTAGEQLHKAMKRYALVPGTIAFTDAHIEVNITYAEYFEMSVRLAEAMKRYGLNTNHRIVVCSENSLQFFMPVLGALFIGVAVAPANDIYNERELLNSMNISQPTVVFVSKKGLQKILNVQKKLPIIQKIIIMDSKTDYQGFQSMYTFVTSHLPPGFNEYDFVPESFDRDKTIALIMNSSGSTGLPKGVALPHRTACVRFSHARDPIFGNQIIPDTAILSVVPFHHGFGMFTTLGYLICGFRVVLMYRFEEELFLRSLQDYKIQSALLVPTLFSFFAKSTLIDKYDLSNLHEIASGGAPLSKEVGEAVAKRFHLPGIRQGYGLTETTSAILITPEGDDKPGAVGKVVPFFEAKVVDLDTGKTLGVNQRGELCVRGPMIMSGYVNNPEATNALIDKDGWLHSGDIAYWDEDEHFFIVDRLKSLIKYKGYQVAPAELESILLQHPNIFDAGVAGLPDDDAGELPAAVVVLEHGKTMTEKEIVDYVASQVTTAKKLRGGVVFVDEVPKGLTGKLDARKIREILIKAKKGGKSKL
# [20] = molecular target: T4, High affinity choline transporter 1 (Homo sapiens, UniProt Q9GZV3); assay: human choline transporter blockers, potency – cell-based, 5-point CRC, membrane potential dye, dose response (AID 504840); format: functional
# T4 sequence (Q9GZV3 whole entry): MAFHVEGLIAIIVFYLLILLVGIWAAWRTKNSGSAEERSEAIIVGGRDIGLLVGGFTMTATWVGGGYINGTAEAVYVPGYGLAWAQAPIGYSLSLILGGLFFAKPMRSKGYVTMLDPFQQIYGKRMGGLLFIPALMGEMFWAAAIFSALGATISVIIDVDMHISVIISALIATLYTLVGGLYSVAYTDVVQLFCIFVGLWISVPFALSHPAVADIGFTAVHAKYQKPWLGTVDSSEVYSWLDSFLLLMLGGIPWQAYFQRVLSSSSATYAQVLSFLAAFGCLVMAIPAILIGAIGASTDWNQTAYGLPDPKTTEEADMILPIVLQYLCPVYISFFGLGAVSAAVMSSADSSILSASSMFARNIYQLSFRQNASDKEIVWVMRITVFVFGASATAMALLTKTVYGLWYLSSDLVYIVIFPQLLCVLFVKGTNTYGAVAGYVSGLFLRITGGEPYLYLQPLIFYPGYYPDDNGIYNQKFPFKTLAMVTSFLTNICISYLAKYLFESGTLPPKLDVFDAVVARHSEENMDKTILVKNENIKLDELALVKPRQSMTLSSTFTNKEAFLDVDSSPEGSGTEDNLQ
# [21] = microbe, parasite or virus in culture; format: functional; details: Mycobacterium tuberculosis
# [22] = THP-1 cell cytotoxicity, dose response, cytotoxicity control for non-replicating M. tuberculosis project (AID 489025); format: functional
# cells [23] = format: functional
# [24] = Vero E6 cell cytotoxicity, dose response, cytotoxicity control for non-replicating M. tuberculosis project, secondary assay (AID 492998); format: functional, VeroE6; details: Vero C1008
# [25] = test system: Streptococcus sp. 'group A'; assay: Streptococcus pyogenes SK(-)GAS viability under kanamycin – luminescence, BacTiterGlo, confirmation, counter-screen for streptokinase expression inhibitor project, dose response (AID 1900); format: functional, organism-based
# Streptococcus = assay: GAS UMAA2166 growth inhibition – luminescence, BacTiterGlo, counter-screen for streptokinase expression inhibitor project, dose response (AID 1915); format: functional, organism-based;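 also: potency for reduction of bacterial viability or growth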
# [26] = HIV-1 AD8 envelope cell-cell fusion blockers – cherry-pick, dose response (AID 652062); format: functional, cell-based;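 also: luciferase signal from cell-cell fusion driven by HIV-1 clade B AD8 Env; potency is for inhibitors of fusion seen as a drop in luminescence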
# [27] = blockers of HIV-1 ZM109 envelope-driven cell-cell fusion – HeLa effector, CEM target cells, luciferase, cherry-pick, dose response (AID 652058); format: functional, cell-based;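 also: luciferase signal from HIV-1 Env mediated cell-cell fusion of effector and target cells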
# [28] = off-target signal loss in HeLa-CEM21 co-culture – HeLa F-luc CTL cells, cherry-picked, counter-screen for HIV-1 Env fusion inhibitor project, dose response (AID 652040); format: functional, cell-based;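 also: potency for signal decrease marking cytotoxic or nonspecific inhibition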
# [29] = blockers of HIV-1 envelope-mediated cell-cell fusion – cherry-pick, dose response (AID 652057); format: functional, cell-based
# [30] = viability loss in CEM21 cells – cell-based, CellTiter-Glo luminescence, cherry-picked, cytotoxicity control for viral fusion inhibitor project, dose response (AID 652042); format: functional;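 also: potency for signal decrease meaning cytotoxicity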
# Cytochrome P450 2C9 = Cytochrome P450 2C9 (Homo sapiens, UniProt P11712)
# Chain of Cytochrome P450 2C9 (P11712 whole entry): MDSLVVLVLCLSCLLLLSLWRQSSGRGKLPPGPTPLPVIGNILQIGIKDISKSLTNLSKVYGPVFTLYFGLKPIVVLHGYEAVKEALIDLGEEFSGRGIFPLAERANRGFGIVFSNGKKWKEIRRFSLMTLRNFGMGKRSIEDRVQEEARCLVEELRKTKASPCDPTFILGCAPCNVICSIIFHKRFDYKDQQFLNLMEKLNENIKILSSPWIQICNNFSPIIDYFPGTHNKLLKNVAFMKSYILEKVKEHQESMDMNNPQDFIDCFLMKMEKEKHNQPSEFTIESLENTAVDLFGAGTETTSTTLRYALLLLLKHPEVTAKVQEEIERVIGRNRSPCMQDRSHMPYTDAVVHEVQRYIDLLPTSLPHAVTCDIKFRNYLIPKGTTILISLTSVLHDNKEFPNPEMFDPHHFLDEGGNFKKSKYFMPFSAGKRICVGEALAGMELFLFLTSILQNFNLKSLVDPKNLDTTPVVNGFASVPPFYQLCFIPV
# T1 sequence (P08684 whole entry): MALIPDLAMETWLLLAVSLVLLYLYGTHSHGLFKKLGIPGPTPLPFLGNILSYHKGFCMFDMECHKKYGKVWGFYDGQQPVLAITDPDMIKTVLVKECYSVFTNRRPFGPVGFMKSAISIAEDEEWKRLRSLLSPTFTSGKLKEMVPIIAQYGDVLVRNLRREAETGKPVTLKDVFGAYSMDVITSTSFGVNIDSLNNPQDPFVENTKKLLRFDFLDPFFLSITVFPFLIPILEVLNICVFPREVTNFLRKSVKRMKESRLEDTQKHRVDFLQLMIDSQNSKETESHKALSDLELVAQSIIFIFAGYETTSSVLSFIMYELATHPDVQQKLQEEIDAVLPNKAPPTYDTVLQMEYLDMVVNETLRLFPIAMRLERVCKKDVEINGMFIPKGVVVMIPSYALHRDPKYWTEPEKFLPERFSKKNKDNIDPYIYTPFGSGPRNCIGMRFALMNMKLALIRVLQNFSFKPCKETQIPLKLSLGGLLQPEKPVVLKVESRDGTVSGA
smiles,measurement,setting,value
CN1[C@@H]2CC[C@H]1CC(NC(=O)c1nn(C)c3ccccc13)C2 (stereo partly drawn),AC50,Cytochrome P450 3A4 [1],inconclusive
O=C(CNc1cccc2ccccc12)N/N=C/C=C/c1ccco1,IC50,[2],> 50 µM (not active)
COc1cc2c(C)nc3c(cnn3-c3ccccc3)c2cc1OC,AC50,HeLa,86.7 µM (active)
COc1ccc(/N=C2\SC(C(=O)O)CC(=O)N2Cc2ccc(OC)c(OC)c2)cc1 (stereo not drawn),AC50,Escherichia coli,86.2 µM (active)
Cn1c(=O)c2cc(S(=O)(=O)NC(C(=O)Nc3cccc(F)c3)c3ccccc3)ccc2n(C)c1=O (stereo not drawn),IC50,Prothrombin,> 100 µM (inactive)
same,IC50,[3],92.8 µM (active)
same,IC50,[4],> 100 µM (inactive)
CCCN1CCN(C(=O)CN2C(=O)CC(C)(C)S(=O)(=O)c3ccccc32)CC1,AC50,Cytochrome P450 3A4 [5],12.6 µM (inconclusive)
same,AC50,Cytochrome P450 2D6,inconclusive
same,AC50,Cytochrome P450 2C19,inconclusive
Cc1ccc(-n2nc3cc(C)c(N)cc3n2)cc1,IC50,[6],7.02 µM (active)
same,EC50,[7],> 67.5 µM (inactive)
same,IC50,[2],> 50 µM (not active)
same,EC50,cells [8],> 67.5 µM (inactive)
COc1ccc(C(=O)Nc2ccc3c4c(cccc24)CC3)cc1,AC50,HeLa,73.4 µM (active)
CCOC(=O)c1cn2nc(N3CCCC3)ccc2n1,AC50,HEK293,3.17 µM (active)
same,EC50,[9],5.55 µM (active)
same,EC50,[10],2.56 µM (active)
same,AC50,[11],5.54 µM (active)
same,EC50,[12],8.17 µM (inconclusive)
same,AC50,[13],5.94 µM (active)
COc1ccc(/C=C2\N=C(C)OC2=O)cc1[N+](=O)[O-],AC50,HEK293,237 µM (active)
O=C1CCCCCC1C1(O)C(=O)Nc2ccc(Br)cc21 (stereo not drawn),AC50,Cytochrome P450 3A4 [5],17.8 µM (inconclusive)
same,AC50,Cytochrome P450 2D6,inconclusive
Cc1nn(-c2ccccc2)c2c1C(O)n1c(nc3ccccc31)S2 (stereo not drawn),EC50,H4,> 120 µM (not active)
same,EC50,[14],> 120 µM (not active)
same,IC50,[15],> 93.1 µM (not active)
same,EC50,[16],> 120 µM (not active)
CNC(=O)CNC(=O)Nc1ccc(C)cc1,AC50,Escherichia coli,29.8 µM (active)
CC(C)(C)NC(=O)COc1ccc(CNc2ccc3[nH]c(O)nc3c2)cc1,IC50,[17],64.6 µM (inactive)
same,IC50,[2],> 50 µM (not active)
same,EC50,[18],17.9 µM (active)
same,EC50,[19],> 112 µM (not active)
O=C(Nc1cc(C(F)(F)F)ccc1-n1cncn1)c1ccc([N+](=O)[O-])o1,IC50,[20],11 µM (active)
same,CC50,[21],6.96 µM (active)
same,CC50,[22],37.3 µM (active)
same,IC50,cells [23],19.8 µM (active)
same,CC50,[24],8.89 µM (active)
CCc1ccc(/C=N/NC(=O)c2ccccn2)cc1,AC50,HEK293,3.11 µM (active)
same,IC50,cells [23],5.9 µM (active)
CN1CCN(c2cc3c(cc2F)c(=O)c(C(=O)O)cn3CCF)CC1,EC50,[25],5.58 µM (active)
same,EC50,Streptococcus,7.64 µM (active)
same,AC50,Escherichia coli,2.57 µM (active)
same,IC50,cells [23],3.08 µM (active)
COc1cccc(-c2nnc3sc(C4CCCCC4)nn23)c1,AC50,HEK293,17 µM (active)
same,AC50,[26],3.09 µM (active)
same,AC50,[27],5.07 µM (active)
same,AC50,[28],3.63 µM (active)
same,AC50,[29],4.26 µM (active)
same,AC50,[30],30 µM (active)
O=C(Nc1ccccn1)c1ccccc1,AC50,HeLa,83.2 µM (active)
COC(=O)c1ccccc1NC(=O)c1c(Br)cnn1C,AC50,Cytochrome P450 2C9,inconclusive
same,AC50,Cytochrome P450 3A4 [1],inconclusive
O=C1C(/C=N/c2ccccc2O)=C(O)c2ccccc21,EC50,[7],> 67.5 µM (inactive)
same,IC50,[15],23.1 µM (not active)
same,EC50,cells [8],> 67.5 µM (inactive)
O=C(c1ccccc1)N1CCN(c2nc3ccc([N+](=O)[O-])cc3s2)CC1,AC50,Escherichia coli,28.7 µM (active)
O=C(Oc1ccccc1)N1CCC2(CC1)CCN(c1ncccn1)CC2,AC50,Cytochrome P450 3A4 [1],inconclusive
